From BindingDB's records for patent US10202390 (Bristol-Myers Squibb Co., 2019)

Biological target: T1, Interleukin-1 receptor-associated kinase 4 (Homo sapiens, UniProt Q9NWZ3)
T1 sequence (Q9NWZ3 whole entry): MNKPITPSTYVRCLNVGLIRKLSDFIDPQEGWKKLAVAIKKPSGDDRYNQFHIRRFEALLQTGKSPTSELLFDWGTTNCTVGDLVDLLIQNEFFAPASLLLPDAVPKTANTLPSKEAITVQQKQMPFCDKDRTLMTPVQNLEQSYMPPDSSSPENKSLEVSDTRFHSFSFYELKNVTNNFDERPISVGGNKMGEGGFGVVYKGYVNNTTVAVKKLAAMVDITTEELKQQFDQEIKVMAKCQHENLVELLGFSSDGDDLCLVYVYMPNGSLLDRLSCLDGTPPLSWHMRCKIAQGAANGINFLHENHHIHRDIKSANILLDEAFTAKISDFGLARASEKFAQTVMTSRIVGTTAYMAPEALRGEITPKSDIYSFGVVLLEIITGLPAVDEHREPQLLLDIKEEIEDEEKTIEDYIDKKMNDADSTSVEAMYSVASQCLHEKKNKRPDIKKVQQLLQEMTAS
Test: Not found
Description: Not found

SMILES	IC50
CC(C)(O)CCc1cn(-c2cnc(-c3cnn4cc(C#N)cnc34)cc2NC2COC2)nn1 [US10202390, Example 26]	10 nM
CC(C)Nc1cc(-c2cnc3cc(Cl)cnn23)ncc1-c1cnn(C2CCOCC2)c1 [US10202390, Example 2]	63 nM
